These results are taken from US8361998B2, “Compounds and their use as IKACh blockers” (AstraZeneca AB, priority 2010, dated 2013).

Where a name gives a salt, the structure may show the parent alone.

For assay [1], the target named is T1, human ether-a-go-go-related gene (hERG)-encoded K+ channel (Homo sapiens, UniProt Q12809).
T1 construct: expressed in transfected cells; host or cells: Chinese hamster ovary K1 (CHO) cells
Description: hERG inhibition, IonWorks HT, hERG-expressing CHO cells. It counts as cell-based. As to the method:
Inhibition of the human ether-a-go-go-related gene (hERG)-encoded K^+ channel was determined using hERG-expressing Chinese hamster ovary K1 (CHO) cells on a IonWorks™ HT assay platform as described by M. H. Bridgland-Taylor et al. J. of Pharmacological and Toxicological Methods (2006); 54:189-199.

Assay [2] relates to anaesthetized rabbits subjected to vagal stimulation. Description: In vivo PD model, anaesthetized rabbits with vagal stimulation: right atrial effective refractory period (RAERP), QT. Details: species or system rabbit. Here is the method: Rabbits were anaesthetized using ketalar and domitor (2.5 and 0.07 mg/kg, respectively) as an i.v. bolus followed by a maintenance i.v. infusion (11 and 0.33 mg/kg/h, respectively) and ventilated with room air. Two percutaneous polyethylene catheter (Venflon 0.8 mm, Viggo, Helsingborg, Sweden) for administration of anaesthetics and drug infusions, respectively, were inserted into marginal veins on the right and left ear. A polyethylene catheter (Intramedic PE 160 Clay Adams, Becton Dickinson, Sparks, Md., USA) was inserted into the left carotid artery and advanced to the level of the aortic arch for blood pressure recording (by means of a pressure transducer, Peter von Berg Medizintechnik Gmbh, Kirchseeon/Englharting, Germany) and for blood sampling. For recording of right atrial electrogram and for atrial pacing, a 4F quadripolar electrophysiological recording catheters (Electrophysiology catheter-Deflectable tip, Biosense Webster Inc, Johnson & Johnson, Diamond Bar, Calif., USA) was advanced into the right jugular vein and positioned high up in the right atrium (HRA). Electrodes were advanced via introducers (4F Fast-Cath haemostasis introducer, ST. Jude Medical, DAIG Division, Inc. Minnetonka, Minn., USA) correctly positioned through fluoroscopic guidance. The effective refractory period in the right atrium (RAERP) was determined at a stimulation current strength approximately 20% above the threshold for pacing the atria. A custom-made PC-based (AstraZeneca R&D, Mölndal, Sweden) programmable stimulator and constant current pulse generator (WPI Stimulus Isolator, World Precision Instruments, Sarasota, Fla., USA) were used for stimulation at one or two predefined basic cycle lengths (S1) of for example 200 and 300 ms. A premature extra stimulus (S2) was introduced after every 10th paced basic beat with increments of 2 ms until capture. […] For vagal stimulation, both vagal nerves were ligated and cut in the cervical region and propranolol (0.5 mg/kg) was administrated as an i.v. infusion to decrease sympathetic influence. Electrodes were inserted in the middle of the right vagal nerve to stimulate the efferent vagi. The RAERP was determined without or with vagal stimulation at 50% of maximal vagal response. Subsequent infusion of compound aimed to increase the RAERP with 20 ms during the first dose of two consecutive doses. The drug infusion was followed by a washout period of approximately 30-60 min. QT prolongation was recorded from surface electrocardiography (ECG). The effect on RAERP was measured several times during infusion and washout and blood samples were taken at each measurements. Effect and plasma concentration data was analysed accounting for a concentration-effect-time delay and the unbound plasma concentration (Ceu) increasing the RAERP by 20 ms was calculated.

T1 sequence (Q12809 whole entry): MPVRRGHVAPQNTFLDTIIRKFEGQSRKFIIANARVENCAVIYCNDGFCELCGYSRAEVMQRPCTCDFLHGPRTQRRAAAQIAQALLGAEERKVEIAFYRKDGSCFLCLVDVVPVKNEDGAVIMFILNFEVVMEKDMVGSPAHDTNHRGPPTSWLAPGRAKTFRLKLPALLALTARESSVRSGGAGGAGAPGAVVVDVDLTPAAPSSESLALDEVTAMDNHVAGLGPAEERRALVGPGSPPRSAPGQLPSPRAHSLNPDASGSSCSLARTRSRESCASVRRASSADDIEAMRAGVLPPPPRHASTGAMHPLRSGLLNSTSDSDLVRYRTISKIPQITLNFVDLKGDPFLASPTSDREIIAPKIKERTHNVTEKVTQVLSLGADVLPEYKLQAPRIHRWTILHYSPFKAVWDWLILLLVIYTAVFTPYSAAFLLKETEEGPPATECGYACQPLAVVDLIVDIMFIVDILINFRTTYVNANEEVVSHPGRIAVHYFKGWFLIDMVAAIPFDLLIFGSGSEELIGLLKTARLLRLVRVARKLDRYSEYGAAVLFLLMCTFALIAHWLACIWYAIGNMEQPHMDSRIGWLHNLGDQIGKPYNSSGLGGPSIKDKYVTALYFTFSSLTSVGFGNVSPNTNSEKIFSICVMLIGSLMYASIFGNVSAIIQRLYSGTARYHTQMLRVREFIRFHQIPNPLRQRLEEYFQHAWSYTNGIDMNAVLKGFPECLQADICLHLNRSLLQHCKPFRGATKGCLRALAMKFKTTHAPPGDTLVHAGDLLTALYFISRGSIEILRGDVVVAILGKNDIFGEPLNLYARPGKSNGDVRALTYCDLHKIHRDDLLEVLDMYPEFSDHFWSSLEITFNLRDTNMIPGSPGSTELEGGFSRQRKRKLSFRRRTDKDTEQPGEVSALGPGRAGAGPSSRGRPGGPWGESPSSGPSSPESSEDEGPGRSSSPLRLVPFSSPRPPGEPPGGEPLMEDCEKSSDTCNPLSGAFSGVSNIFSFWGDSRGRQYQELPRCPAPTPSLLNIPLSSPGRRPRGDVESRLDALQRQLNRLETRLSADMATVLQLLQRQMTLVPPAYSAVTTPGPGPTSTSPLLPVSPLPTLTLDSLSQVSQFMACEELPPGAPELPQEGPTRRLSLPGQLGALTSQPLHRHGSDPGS

By IC50 is commonly meant the point on the concentration scale where inhibition reaches its midpoint. Low values mean inhibition by little substance, high ones a need for much substance. Compound `CCC[C@@H](CN1CCC1)N(C)C(=O)c1ccc(Cl)cc1` [Example 1.2, (S)-N-(1-(Azetidin-1-yl)pentan-2-yl)-4-chloro-N-methylbenzamide] gave an IC50 in assay [1] of 20 µM. In addition, in assay [2], the “Ceu 20 ms” value was found to be 0.40 µM.

Turning to `CCC[C@@H](CN1CCC1)N(C)C(=O)c1ccc(F)c(C)c1` [Example 1.4, (S)-N-(1-(Azetidin-1-yl)pentan-2-yl)-4-fluoro-N,3-dimethyl-benzamide], in assay [1], the IC50 is above 33 µM. For the same compound, the “Ceu 20 ms” value in assay [2] amounted to 0.60 µM.

In assay [1], `CC(C)[C@@H](CN1CCCC1)N(C)C(=O)c1ccc(F)cc1Cl` [Example 1.17, (S)-2-Chloro-4-fluoro-N-methyl-N-(3-methyl-1-(pyrrolidin-1-yl)butan-2-yl)benzamide] yielded an IC50 above 100 µM. For the same compound, the “Ceu 20 ms” value in assay [2] was found to be 1.40 µM.

In turn, `Cc1cc(C(=O)N(C)[C@H](CN2CCC2)C2CC2)ccc1F` [Example 4.1, (S)—N-(2-(Azetidin-1-yl)-1-cyclopropylethyl)-4-fluoro-N,3-dimethylbenzamide] came in with an IC50 in assay [1] above 33 µM. In addition, in assay [2], the “Ceu 20 ms” value amounted to 0.74 µM.

In turn, `CN(C(=O)c1ccc(Br)cc1)[C@H](CN1CC(O)C1)C1CC1` [Example 4.4, (S)-4-Bromo-N-(1-cyclopropyl-2-(3-hydroxyazetidin-1-yl)ethyl)-N-methylbenzamide] returned an IC50 in assay [1] above 33 µM. Besides, in assay [2], the “Ceu 20 ms” value is 0.75 µM.

In assay [1], `CC(C)[C@@H](CN1CCC1)N(C)C(=O)c1ccc(Cl)cc1` [Example 5.1, (S)-N-(1-(Azetidin-1-yl)-3-methylbutan-2-yl)-4-chloro-N-methylbenzamide] registered an IC50 of 76 µM. In assay [2], the “Ceu 20 ms” value was 1.00 µM.

In assay [1], `CC(C)[C@@H](CN1CCC1)N(C)C(=O)c1ccc(Br)cc1.O=C(O)CCC(=O)O` [Example 5.2] registered an IC50 of 34 µM. Also, the “Ceu 20 ms” value in assay [2] was found to be 0.60 µM.

As to `Cc1cc(C(=O)N(C)[C@H](CN2CC(O)C2)C(C)C)ccc1F` [Example 6.1, (S)-4-Fluoro-N-(1-(3-hydroxyazetidin-1-yl)-3-methylbutan-2-yl)-N,3-dimethylbenzamide], the IC50 in assay [1] was above 100 µM. The “Ceu 20 ms” value in assay [2] came to 0.54 µM.

As to `CC(C)[C@@H](CN1CC(O)C1)N(C)C(=O)c1ccc(Cl)cc1` [Example 6.2, (S)-4-Chloro-N-(1-(3-hydroxyazetidin-1-yl)-3-methylbutan-2-yl)-N-methylbenzamide], the IC50 in assay [1] was above 53 µM. Moreover, in assay [2], the “Ceu 20 ms” value worked out at 0.40 µM.

As for `Cc1cc(C(=O)N(C)[C@H](CN2CC(O)C2)C2CC2)ccc1F` [Example 7.1, (S)—N-(1-Cyclopropyl-2-(3-hydroxyazetidin-1-yl)ethyl)-4-fluoro-N,3-dimethylbenzamide], the 50% inhibitory concentration (IC50) in assay [1] was above 33 µM. In assay [2], the “Ceu 20 ms” value is 5.40 µM.

Compound `CN(C(=O)c1ccc(Cl)cc1)[C@H](CN1CC(O)C1)C1CC1` [Example 7.2, (S)-4-Chloro-N-(1-cyclopropyl-2-(3-hydroxyazetidin-1-yl)ethyl)-N-methylbenzamide] yielded an IC50 in assay [1] above 33 µM. For the same compound, the “Ceu 20 ms” value in assay [2] turned out to be 1.00 µM.

`CN(C(=O)c1ccc(F)c(Cl)c1)[C@H](CN1CC(O)C1)C1CC1` [Example 7.3, (S)-3-Chloro-N-(1-cyclopropyl-2-(3-hydroxyazetidin-1-yl)ethyl)-4-fluoro-N-methylbenzamide]: in assay [1], the IC50 is above 33 µM. For the same compound, the “Ceu 20 ms” value in assay [2] worked out at 2.10 µM.

`CCC[C@@H](CN1CC(O)C1)N(C)C(=O)c1ccc(F)c(F)c1` [Example 8.1, (S)-3,4-Difluoro-N-(1-(3-hydroxyazetidin-1-yl)pentan-2-yl)-N-methylbenzamide] gave an IC50 in assay [1] above 100 µM. Also, in assay [2], the “Ceu 20 ms” value turned out to be 0.87 µM.

On to `CCC[C@@H](CN1CC(O)C1)N(C)C(=O)c1ccc(Cl)cc1` [Example 8.2, (S)-4-Chloro-N-(1-(3-hydroxyazetidin-1-yl)pentan-2-yl)-N-methyl-benzamide, hydrochloride], for which the IC50 in assay [1] was above 57 µM. Further, in assay [2], the “Ceu 20 ms” value worked out at 0.34 µM.

Take `CCC[C@@H](CN1CC(O)C1)N(C)C(=O)c1ccc(F)cc1` [Example 8.6, (S)-4-Fluoro-N-(1-(3-hydroxyazetidin-1-yl)pentan-2-yl)-N-methylbenzamide]: in assay [1], the IC50 is above 33 µM. Also, the “Ceu 20 ms” value in assay [2] amounted to 2.50 µM.

`CC(C)[C@@H](CN1CC[C@H](O)C1)N(C)C(=O)c1ccc(Cl)cc1` [Example 10.2, 4-Chloro-N-((S)-1-((S)-3-hydroxypyrrolidin-1-yl)-3-methylbutan-2-yl)-N-methylbenzamide hemi tartrate] displayed an IC50 in assay [1] above 33 µM. Further, the “Ceu 20 ms” value in assay [2] turned out to be 1.40 µM.

For the compound `Cc1cc(C(=O)N(C)[C@H](CN2CCCC2)C(C)C)ccc1F` [Example 12.1, (S)-4-Fluoro-N,3-dimethyl-N-(3-methyl-1-(pyrrolidin-1-yl)butan-2-yl)benzamide-dihydroxysuccinate], the IC50 in assay [1] is above 100 µM. Besides, the “Ceu 20 ms” value in assay [2] was 0.68 µM.

Turning to `Cc1cccc(C(=O)N(C)[C@H](CN2CCCC2)C(C)C)c1` [Example 12.2, (S)-1-(2-(N,3-Dimethylbenzamido)-3-methylbutyl)pyrrolidinium 2,3-dihydroxysuccinate], in assay [1], the IC50 is above 33 µM. Moreover, in assay [2], the “Ceu 20 ms” value was determined as 2.20 µM.

As for `CC(C)[C@@H](CN1CCCC1)N(C)C(=O)c1ccc(F)c(Cl)c1` [Example 16.55, (S)-3-Chloro-4-fluoro-N-methyl-N-(3-methyl-1-(pyrrolidin-1-yl)butan-2-yl)benzamide], the half-inhibitory concentration (IC50) in assay [1] was above 31 µM. For the same compound, the “Ceu 20 ms” value in assay [2] was found to be 0.60 µM.

The compound `CC(C)[C@@H](CN1CCCC1)N(C)C(=O)c1ccc(Cl)cc1` [Example 18, (S)-1-(2-(4-Chloro-N-methylbenzamido)-3-methylbutyl)pyrrolidinium chloride] gave an IC50 in assay [1] above 30 µM. The “Ceu 20 ms” value in assay [2] amounted to 0.70 µM.

`CC(C)[C@@H](CN1CCCC1)N(C)C(=O)c1ccc(Br)cc1` [Example 19, (S)-1-(2-(4-bromo-N-methylbenzamido)-3-methylbutyl)pyrrolidinium 3-carboxy-2,3-dihydroxypropanoate] came in with an IC50 in assay [1] of 17 µM. Also, the “Ceu 20 ms” value in assay [2] came to 0.34 µM.

In assay [1], `CC[C@H](C)[C@@H](CN1CC(O)C1)N(C)C(=O)c1ccc(C#N)cc1F` [Example 29.7, 4-Cyano-2-fluoro-N-((2S,3S)-1-(3-hydroxyazetidin-1-yl)-3-methylpentan-2-yl)-N-methylbenzamide] registered an IC50 above 33 µM. The “Ceu 20 ms” value in assay [2] was determined as 0.79 µM.

In assay [1], `CCCC[C@@H](CN1CC(O)C1)N(C)C(=O)c1ccc(C#N)cc1` [Example 33.4, 4-Cyano-N-[(2S)-1-(3-hydroxyazetidin-1-yl)hexan-2-yl]-N-methylbenzamide] returned an IC50 of 18 µM. For the same compound, the “Ceu 20 ms” value in assay [2] stood at 0.52 µM.

In assay [1], `CCCC[C@@H](CN1CC(O)C1)N(C)C(=O)c1ccc(F)cc1` [Example 33.7, 4-Fluoro-N-[(2S)-1-(3-hydroxyazetidin-1-yl)hexan-2-yl]-N-methylbenzamide] yielded an IC50 of 79 µM. For the same compound, the “Ceu 20 ms” value in assay [2] is 0.80 µM.

In assay [1], `CC(C)C[C@@H](CN1CC(O)C1)N(C)C(=O)c1ccc(F)c(F)c1` [Example 38.1, 3,4-Difluoro-N-[(2S)-1-(3-hydroxyazetidin-1-yl)-4-methylpentan-2-yl]-N-methylbenzamide] came in with an IC50 above 33 µM. Moreover, in assay [2], the “Ceu 20 ms” value was 0.34 µM.

In the case of `CC(C)C[C@@H](CN1CC(O)C1)N(C)C(=O)c1ccc(Cl)cc1` [Example 38.2, 4-Chloro-N-[(2S)-1-(3-hydroxyazetidin-1-yl)-4-methylpentan-2-yl]-N-methylbenzamide], in assay [1], the IC50 is above 33 µM. Besides, the “Ceu 20 ms” value in assay [2] is 0.38 µM.

Turning to `CC(C)C[C@@H](CN1CC(O)C1)N(C)C(=O)c1ccc(C#N)cc1F` [Example 38.6, 4-Cyano-2-fluoro-N-[(2S)-1-(3-hydroxyazetidin-1-yl)-4-methylpentan-2-yl]-N-methylbenzamide], in assay [1], the IC50 is above 33 µM. Further, in assay [2], the “Ceu 20 ms” value came out at 0.72 µM.

With `CN(C(=O)c1ccc(C#N)cc1)[C@H](CN1CC(O)C1)C1CCC1` [Example 39.2, (S)-4-Cyano-N-(1-cyclobutyl-2-(3-hydroxyazetidin-1-yl)ethyl)-N-methylbenzamide], the 50% inhibitory concentration (IC50) in assay [1] stood at 80 µM. The “Ceu 20 ms” value in assay [2] was determined as 0.28 µM.
